Results: patent US9340590B2 (priority 2011, dated 2016)
pIC50: −log10 of the molar value. Like-named read-outs stand apart in the source and are kept apart here. Positions of bridges follow the written chain, without caps; N, C: chain ends. Residues, ends and D or L forms follow the SMILES beside them.

Assays:
hNav1.3 = hNav1.3 (Homo sapiens, UniProt Q9NY46); experiment: cell-based; details: IonWorks Quattro, read-out: IWQ Use Nav1.3
hNav1.5 = hNav1.5 (Homo sapiens, UniProt Q14524); experiment: cell-based; details: for pIC50: IonWorks Quattro, read-out: IWQ Use Nav1.5; for IC50: IWQ Use Nav1.5 (μM)
Chain of hNav1.5 (Q14524 whole entry, looked up): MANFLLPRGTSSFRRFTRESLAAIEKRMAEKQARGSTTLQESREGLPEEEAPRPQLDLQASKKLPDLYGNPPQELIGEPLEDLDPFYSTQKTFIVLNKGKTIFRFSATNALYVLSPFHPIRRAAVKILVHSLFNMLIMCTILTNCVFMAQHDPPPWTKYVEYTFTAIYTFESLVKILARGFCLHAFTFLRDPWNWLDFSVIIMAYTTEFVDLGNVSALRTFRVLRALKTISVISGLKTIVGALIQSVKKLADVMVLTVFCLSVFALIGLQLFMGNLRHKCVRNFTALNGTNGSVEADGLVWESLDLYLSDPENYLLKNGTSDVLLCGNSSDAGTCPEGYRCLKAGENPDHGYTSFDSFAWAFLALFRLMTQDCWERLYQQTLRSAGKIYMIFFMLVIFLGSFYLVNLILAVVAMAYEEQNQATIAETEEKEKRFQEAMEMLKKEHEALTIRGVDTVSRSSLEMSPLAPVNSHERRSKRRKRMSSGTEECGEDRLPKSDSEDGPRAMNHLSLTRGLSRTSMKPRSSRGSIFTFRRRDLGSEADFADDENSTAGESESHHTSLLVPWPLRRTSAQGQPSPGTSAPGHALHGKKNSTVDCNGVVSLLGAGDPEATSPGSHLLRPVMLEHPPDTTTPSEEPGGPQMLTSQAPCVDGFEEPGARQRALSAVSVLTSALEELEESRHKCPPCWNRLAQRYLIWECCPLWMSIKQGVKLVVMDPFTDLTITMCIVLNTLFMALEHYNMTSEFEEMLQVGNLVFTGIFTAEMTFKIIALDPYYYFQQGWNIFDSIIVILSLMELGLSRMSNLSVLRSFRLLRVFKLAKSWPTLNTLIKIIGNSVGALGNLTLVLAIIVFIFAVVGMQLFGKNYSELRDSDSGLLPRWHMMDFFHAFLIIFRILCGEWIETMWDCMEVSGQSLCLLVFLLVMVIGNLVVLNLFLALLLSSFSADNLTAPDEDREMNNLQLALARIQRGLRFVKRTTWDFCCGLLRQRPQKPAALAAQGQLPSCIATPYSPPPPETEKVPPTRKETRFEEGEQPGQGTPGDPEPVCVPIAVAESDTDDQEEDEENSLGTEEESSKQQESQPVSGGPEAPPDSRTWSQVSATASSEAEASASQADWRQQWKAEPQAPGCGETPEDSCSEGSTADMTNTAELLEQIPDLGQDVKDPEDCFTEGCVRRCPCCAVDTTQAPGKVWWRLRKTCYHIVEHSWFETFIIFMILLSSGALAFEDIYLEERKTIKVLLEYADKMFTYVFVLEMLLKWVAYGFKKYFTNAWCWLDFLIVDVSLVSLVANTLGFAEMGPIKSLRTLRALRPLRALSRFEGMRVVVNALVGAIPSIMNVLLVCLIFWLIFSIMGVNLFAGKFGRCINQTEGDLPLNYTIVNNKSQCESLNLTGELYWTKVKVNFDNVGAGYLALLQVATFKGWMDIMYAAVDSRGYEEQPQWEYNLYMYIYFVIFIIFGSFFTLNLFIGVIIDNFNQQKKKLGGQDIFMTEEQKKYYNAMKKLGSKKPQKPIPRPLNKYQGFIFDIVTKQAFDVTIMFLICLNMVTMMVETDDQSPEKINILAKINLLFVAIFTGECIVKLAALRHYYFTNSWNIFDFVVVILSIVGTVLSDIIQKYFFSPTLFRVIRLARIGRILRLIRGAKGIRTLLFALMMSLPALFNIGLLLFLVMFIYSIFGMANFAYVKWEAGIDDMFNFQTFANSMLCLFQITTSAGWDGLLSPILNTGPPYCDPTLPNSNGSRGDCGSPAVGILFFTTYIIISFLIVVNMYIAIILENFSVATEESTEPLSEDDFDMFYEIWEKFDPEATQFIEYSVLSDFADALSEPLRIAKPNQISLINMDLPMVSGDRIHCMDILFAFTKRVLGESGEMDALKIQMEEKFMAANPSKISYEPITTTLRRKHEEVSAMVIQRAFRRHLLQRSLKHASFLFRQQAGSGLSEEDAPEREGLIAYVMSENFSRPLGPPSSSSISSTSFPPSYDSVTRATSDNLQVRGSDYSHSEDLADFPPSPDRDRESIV

Chain of hNav1.3 (Q9NY46 whole entry, looked up): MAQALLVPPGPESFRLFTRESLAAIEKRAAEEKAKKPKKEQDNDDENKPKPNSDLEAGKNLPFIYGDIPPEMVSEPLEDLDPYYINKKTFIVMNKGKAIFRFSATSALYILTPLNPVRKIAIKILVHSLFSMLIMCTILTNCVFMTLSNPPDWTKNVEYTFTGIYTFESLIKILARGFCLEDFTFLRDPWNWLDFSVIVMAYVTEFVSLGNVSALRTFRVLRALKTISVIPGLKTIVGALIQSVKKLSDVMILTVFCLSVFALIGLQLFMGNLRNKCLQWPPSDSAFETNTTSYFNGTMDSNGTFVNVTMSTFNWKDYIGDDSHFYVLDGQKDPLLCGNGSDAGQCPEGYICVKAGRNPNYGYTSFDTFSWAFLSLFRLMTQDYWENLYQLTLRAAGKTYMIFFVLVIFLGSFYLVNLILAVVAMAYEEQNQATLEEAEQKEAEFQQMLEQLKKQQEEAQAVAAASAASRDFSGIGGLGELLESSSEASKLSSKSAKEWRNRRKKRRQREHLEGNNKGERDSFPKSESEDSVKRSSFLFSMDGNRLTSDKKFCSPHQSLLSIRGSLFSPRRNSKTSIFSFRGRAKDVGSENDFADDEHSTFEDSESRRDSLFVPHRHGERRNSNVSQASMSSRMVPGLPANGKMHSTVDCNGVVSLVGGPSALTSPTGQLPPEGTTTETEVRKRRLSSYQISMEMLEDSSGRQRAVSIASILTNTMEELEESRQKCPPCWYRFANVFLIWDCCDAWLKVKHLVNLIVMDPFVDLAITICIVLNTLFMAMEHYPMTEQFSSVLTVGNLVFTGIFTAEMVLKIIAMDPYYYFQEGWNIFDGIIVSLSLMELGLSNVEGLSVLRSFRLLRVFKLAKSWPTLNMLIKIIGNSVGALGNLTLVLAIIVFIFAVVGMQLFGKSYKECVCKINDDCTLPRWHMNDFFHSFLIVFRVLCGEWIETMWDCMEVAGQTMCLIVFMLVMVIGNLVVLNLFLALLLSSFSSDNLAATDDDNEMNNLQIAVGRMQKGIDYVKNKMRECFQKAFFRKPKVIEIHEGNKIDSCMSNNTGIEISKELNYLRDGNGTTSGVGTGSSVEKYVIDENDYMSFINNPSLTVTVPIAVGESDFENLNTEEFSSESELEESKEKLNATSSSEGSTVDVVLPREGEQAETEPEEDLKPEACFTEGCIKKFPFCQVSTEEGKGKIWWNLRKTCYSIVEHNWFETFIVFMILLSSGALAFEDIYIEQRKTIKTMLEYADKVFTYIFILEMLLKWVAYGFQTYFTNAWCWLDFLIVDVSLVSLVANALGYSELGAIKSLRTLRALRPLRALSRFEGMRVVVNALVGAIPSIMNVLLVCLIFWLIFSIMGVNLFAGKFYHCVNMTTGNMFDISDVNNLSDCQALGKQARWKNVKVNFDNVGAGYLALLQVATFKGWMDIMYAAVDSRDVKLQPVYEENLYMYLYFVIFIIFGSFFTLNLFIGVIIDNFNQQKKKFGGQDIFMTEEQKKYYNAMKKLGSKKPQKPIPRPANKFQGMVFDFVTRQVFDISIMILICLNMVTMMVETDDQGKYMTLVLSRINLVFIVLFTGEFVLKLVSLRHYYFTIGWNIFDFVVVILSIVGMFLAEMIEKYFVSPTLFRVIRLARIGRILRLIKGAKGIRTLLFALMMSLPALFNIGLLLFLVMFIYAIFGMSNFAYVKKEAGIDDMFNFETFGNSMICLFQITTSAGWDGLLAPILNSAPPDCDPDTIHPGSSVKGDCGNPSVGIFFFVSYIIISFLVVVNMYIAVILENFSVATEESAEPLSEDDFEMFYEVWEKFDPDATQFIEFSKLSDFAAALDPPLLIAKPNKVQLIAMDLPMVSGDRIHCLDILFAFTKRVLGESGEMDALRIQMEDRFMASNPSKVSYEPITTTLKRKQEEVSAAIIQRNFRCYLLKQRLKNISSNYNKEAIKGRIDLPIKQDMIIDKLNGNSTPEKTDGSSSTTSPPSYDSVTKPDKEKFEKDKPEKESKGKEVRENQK

SMILES | pIC50 (hNav1.3; Use) | pIC50 (hNav1.5; Use) | pIC50 (hNav1.3; Table 25, use, […]) | pIC50 (hNav1.5; Table 25, use, […]) | IC50 (hNav1.5)
CC[C@H](C)[C@@H]1NC(=O)[C@@H]2CSSC[C@@H]3NC(=O)[C@H](C(C)C)NC(=O)[C@H](CC(C)C)NC(=O)[C@H](C)NC(=O)[C@@H]4CCCN4C(=O)[C@H](CCCNC(=N)N)NC(=O)[C@H](CSSC[C@H](NC(=O)[C@@H](N)CC(=O)O)C(=O)N[C@@H](CC(C)C)C(=O)NCC(=O)N[C@@H](Cc4ccccc4)C(=O)N[C@@H](CCSC)C(=O)N[C@@H](CCCNC(=N)N)C(=O)N[C@@H](CCCCN)C(=O)N2)NC(=O)[C@H](CSSC[C@@H](C(=O)N[C@@H](CCCCN)C(=O)N[C@@H](Cc2ccc(O)cc2)C(=O)N[C@H](C(=O)N[C@@H](Cc2ccccc2)C(N)=O)C(C)C)NC(=O)[C@H](Cc2c[nH]c4ccccc24)NC(=O)[C@H](CCCCN)NC(=O)[C@H](Cc2cnc[nH]2)NC(=O)[C@H]([C@@H](C)O)NC(=O)[C@H](CCCNC(=N)N)NC(=O)[C@H](CO)NC3=O)NC(=O)[C@H](CCCCN)NC(=O)[C@H](CC(=O)O)NC(=O)[C@H](CC(N)=O)NC(=O)[C@H](CC(=O)O)NC(=O)[C@@H]2CCCN2C1=O [compound 7] (H-DCLGFMRKCIPDNDKCCRPALVCSRTHKWCKYVF-NH2; disulfide 2-17, 9-23, 16-30) | 6.39 | 4.71 | – | – | –
CC[C@H](C)[C@@H]1NC(=O)[C@@H]2CSSC[C@@H]3NC(=O)[C@H](C)NC(=O)[C@H](CC(C)C)NC(=O)[C@H](CC(N)=O)NC(=O)[C@@H]4CCCN4C(=O)[C@H](CCCNC(=N)N)NC(=O)[C@H](CSSC[C@H](NC(=O)[C@@H](N)CC(=O)O)C(=O)N[C@@H](CC(C)C)C(=O)NCC(=O)N[C@@H](Cc4ccccc4)C(=O)N[C@@H](CCSC)C(=O)N[C@@H](CCCNC(=N)N)C(=O)N[C@@H](CCCCN)C(=O)N2)NC(=O)[C@H](CSSC[C@@H](C(=O)N[C@@H](CCCCN)C(=O)N[C@@H](Cc2ccc(O)cc2)C(=O)N[C@H](C(=O)N[C@@H](Cc2ccccc2)C(N)=O)C(C)C)NC(=O)[C@H](Cc2c[nH]c4ccccc24)NC(=O)[C@H](CCCCN)NC(=O)[C@H](Cc2cnc[nH]2)NC(=O)[C@H]([C@@H](C)O)NC(=O)[C@H](CCCNC(=N)N)NC(=O)[C@H](CO)NC3=O)NC(=O)[C@H](CCCCN)NC(=O)[C@H](CC(=O)O)NC(=O)[C@H](CC(N)=O)NC(=O)[C@H](CC(=O)O)NC(=O)[C@@H]2CCCN2C1=O [compound 8] (H-DCLGFMRKCIPDNDKCCRPNLACSRTHKWCKYVF-NH2; disulfide 2-17, 9-23, 16-30) | 6.49 | 4.69 | – | – | –
CC[C@H](C)[C@@H]1NC(=O)[C@@H]2CSSC[C@@H]3NC(=O)[C@H](C(C)C)NC(=O)[C@H](CC(C)C)NC(=O)[C@H](CC(N)=O)NC(=O)[C@@H]4CCCN4C(=O)[C@H](CCCNC(=N)N)NC(=O)[C@H](CSSC[C@H](NC(=O)[C@@H](N)CC(=O)O)C(=O)N[C@@H](CC(C)C)C(=O)NCC(=O)N[C@@H](Cc4ccccc4)C(=O)N[C@@H](CCSC)C(=O)N[C@@H](CCCNC(=N)N)C(=O)N[C@@H](CCCCN)C(=O)N2)NC(=O)[C@H](CSSC[C@@H](C(=O)N[C@@H](CCCCN)C(=O)N[C@@H](C)C(=O)N[C@H](C(=O)N[C@@H](Cc2ccccc2)C(N)=O)C(C)C)NC(=O)[C@H](Cc2c[nH]c4ccccc24)NC(=O)[C@H](CCCCN)NC(=O)[C@H](Cc2cnc[nH]2)NC(=O)[C@H]([C@@H](C)O)NC(=O)[C@H](CCCNC(=N)N)NC(=O)[C@H](CO)NC3=O)NC(=O)[C@H](CCCCN)NC(=O)[C@H](CC(=O)O)NC(=O)[C@H](CC(N)=O)NC(=O)[C@H](CC(=O)O)NC(=O)[C@@H]2CCCN2C1=O [compound 14] (H-DCLGFMRKCIPDNDKCCRPNLVCSRTHKWCKAVF-NH2; disulfide 2-17, 9-23, 16-30) | – | – | 6.11 | 4.69 | –
CC[C@H](C)[C@@H]1NC(=O)[C@@H]2CSSC[C@@H]3NC(=O)[C@H](C(C)C)NC(=O)[C@H](CC(C)C)NC(=O)[C@H](CC(N)=O)NC(=O)[C@@H]4CCCN4C(=O)[C@H](CCCNC(=N)N)NC(=O)[C@H](CSSC[C@H](NC(=O)[C@@H](N)CC(=O)O)C(=O)N[C@@H](CC(C)C)C(=O)NCC(=O)N[C@@H](Cc4ccccc4)C(=O)N[C@@H](CCSC)C(=O)N[C@@H](CCCNC(=N)N)C(=O)N[C@@H](CCCCN)C(=O)N2)NC(=O)[C@H](CSSC[C@@H](C(=O)N[C@@H](CCCCN)C(=O)N[C@@H](Cc2ccc(O)cc2)C(=O)N[C@H](C(=O)N[C@@H](Cc2ccccc2)C(N)=O)C(C)C)NC(=O)[C@H](Cc2c[nH]c4ccccc24)NC(=O)[C@H](CCCCN)NC(=O)[C@H](Cc2cnc[nH]2)NC(=O)[C@H]([C@@H](C)O)NC(=O)[C@H](CCCNC(=N)N)NC(=O)[C@H](CO)NC3=O)NC(=O)[C@H](CCCCN)NC(=O)[C@H](CC(=O)O)NC(=O)[C@H](CC(N)=O)NC(=O)[C@H](CCCCN)NC(=O)[C@@H]2CCCN2C1=O [compound 42] (H-DCLGFMRKCIPKNDKCCRPNLVCSRTHKWCKYVF-NH2; disulfide 2-17, 9-23, 16-30) | 7.05 | – | – | – | 6.51 µM
CSCC[C@@H]1NC(=O)[C@H](Cc2ccccc2)NC(=O)CNC(=O)[C@H](CC(C)C)NC(=O)[C@@H](NC(=O)[C@@H](N)CC(=O)O)CSSC[C@@H]2NC(=O)[C@@H]3CSSC[C@@H](C(=O)N[C@@H](CCCCN)C(=O)N[C@@H](Cc4ccc(O)cc4)C(=O)N[C@H](C(=O)N[C@@H](Cc4ccccc4)C(N)=O)C(C)C)NC(=O)[C@H](Cc4c[nH]c5ccccc45)NC(=O)[C@H](CCCCN)NC(=O)[C@H](Cc4cnc[nH]4)NC(=O)[C@H]([C@@H](C)O)NC(=O)[C@H](CCCNC(=N)N)NC(=O)[C@H](CO)NC(=O)[C@H](CSSC[C@H](NC(=O)[C@H](CCCCN)NC(=O)[C@H](CCCNC(=N)N)NC1=O)C(=O)N[C@@H](C)C(=O)N1CCC[C@H]1C(=O)N[C@@H](CC(=O)O)C(=O)N[C@@H](CC(N)=O)C(=O)N[C@@H](CC(=O)O)C(=O)N[C@@H](CCCCN)C(=O)N3)NC(=O)[C@H](C(C)C)NC(=O)[C@H](CC(C)C)NC(=O)[C@H](CC(N)=O)NC(=O)[C@@H]1CCCN1C(=O)[C@H](CCCNC(=N)N)NC2=O [compound 45] (H-DCLGFMRKCAPDNDKCCRPNLVCSRTHKWCKYVF-NH2; disulfide 2-17, 9-23, 16-30) | 6.72 | 4.78 | – | – | –
CC[C@H](C)[C@@H]1NC(=O)[C@@H]2CSSC[C@@H]3NC(=O)[C@H](C(C)C)NC(=O)[C@H](CC(C)C)NC(=O)[C@H](CC(N)=O)NC(=O)[C@@H]4CCCN4C(=O)[C@H](CCCNC(=N)N)NC(=O)[C@H](CSSC[C@H](NC(=O)[C@@H](N)CC(=O)O)C(=O)N[C@@H](CC(C)C)C(=O)NCC(=O)N[C@@H](Cc4ccccc4)C(=O)N[C@@H](CCSC)C(=O)N[C@@H](CCCNC(=N)N)C(=O)N[C@@H](CCCCN)C(=O)N2)NC(=O)[C@H](CSSC[C@@H](C(=O)N[C@@H](CCCCN)C(=O)N[C@@H](Cc2ccc(O)cc2)C(=O)N[C@H](C(=O)N[C@@H](Cc2ccccc2)C(N)=O)C(C)C)NC(=O)[C@H](Cc2c[nH]c4ccccc24)NC(=O)[C@H](CCCCN)NC(=O)[C@H](Cc2cnc[nH]2)NC(=O)[C@H]([C@@H](C)O)NC(=O)[C@H](CCCNC(=N)N)NC(=O)[C@H](CO)NC3=O)NC(=O)[C@H](CCCCN)NC(=O)[C@H](CC(=O)O)NC(=O)[C@H](CCCCN)NC(=O)[C@H](CC(=O)O)NC(=O)[C@@H]2CCCN2C1=O [compound 48] (H-DCLGFMRKCIPDKDKCCRPNLVCSRTHKWCKYVF-NH2; disulfide 2-17, 9-23, 16-30) | 6.89 | 5.01 | – | – | –
CC[C@H](C)[C@@H]1NC(=O)[C@@H]2CSSC[C@@H]3NC(=O)[C@H](C(C)C)NC(=O)[C@H](CC(C)C)NC(=O)[C@H](CC(N)=O)NC(=O)[C@H](CCCCN)NC(=O)[C@H](CCCNC(=N)N)NC(=O)[C@H](CSSC[C@H](NC(=O)[C@@H](N)CC(=O)O)C(=O)N[C@@H](CC(C)C)C(=O)NCC(=O)N[C@@H](Cc4ccccc4)C(=O)N[C@@H](CCSC)C(=O)N[C@@H](CCCNC(=N)N)C(=O)N[C@@H](CCCCN)C(=O)N2)NC(=O)[C@H](CSSC[C@@H](C(=O)N[C@@H](CCCCN)C(=O)N[C@@H](Cc2ccc(O)cc2)C(=O)N[C@H](C(=O)N[C@@H](Cc2ccccc2)C(N)=O)C(C)C)NC(=O)[C@H](Cc2c[nH]c4ccccc24)NC(=O)[C@H](CCCCN)NC(=O)[C@H](Cc2cnc[nH]2)NC(=O)[C@H]([C@@H](C)O)NC(=O)[C@H](CCCNC(=N)N)NC(=O)[C@H](CO)NC3=O)NC(=O)[C@H](CCCCN)NC(=O)[C@H](CC(=O)O)NC(=O)[C@H](CC(N)=O)NC(=O)[C@H](CC(=O)O)NC(=O)[C@@H]2CCCN2C1=O [compound 50] (H-DCLGFMRKCIPDNDKCCRKNLVCSRTHKWCKYVF-NH2; disulfide 2-17, 9-23, 16-30) | 6.74 | 4.97 | – | – | –
CC[C@H](C)[C@@H]1NC(=O)[C@@H]2CSSC[C@@H]3NC(=O)[C@H](C(C)C)NC(=O)[C@H](CC(C)C)NC(=O)[C@H](CC(N)=O)NC(=O)[C@@H]4CCCN4C(=O)[C@H](CCCNC(=N)N)NC(=O)[C@H](CSSC[C@H](NC(=O)[C@@H](N)CC(=O)O)C(=O)N[C@@H](CC(C)C)C(=O)NCC(=O)N[C@@H](Cc4ccccc4)C(=O)N[C@@H](CCSC)C(=O)N[C@@H](CCCNC(=N)N)C(=O)N[C@@H](CCCCN)C(=O)N2)NC(=O)[C@H](CSSC[C@@H](C(=O)N[C@@H](CCCCN)C(=O)N[C@@H](Cc2ccc(O)cc2)C(=O)N[C@H](C(=O)N[C@@H](Cc2ccccc2)C(N)=O)C(C)C)NC(=O)[C@H](Cc2c[nH]c4ccccc24)NC(=O)[C@H](CCCCN)NC(=O)[C@H](Cc2cnc[nH]2)NC(=O)[C@H]([C@@H](C)O)NC(=O)[C@H](CCCCN)NC(=O)[C@H](CO)NC3=O)NC(=O)[C@H](CCCCN)NC(=O)[C@H](CC(=O)O)NC(=O)[C@H](CC(N)=O)NC(=O)[C@H](CC(=O)O)NC(=O)[C@@H]2CCCN2C1=O [compound 53] (H-DCLGFMRKCIPDNDKCCRPNLVCSKTHKWCKYVF-NH2; disulfide 2-17, 9-23, 16-30) | 6.62 | – | – | – | 15.2 µM
